Results on 20 molecules are retold here after patent publication US7064120B2, “Tricyclic pyridyl carboxamides and derivatives thereof tocolytic oxytocin receptor antagonists” (Wyeth, priority 2001, dated 2006).

T1 sequence (P30518 whole entry): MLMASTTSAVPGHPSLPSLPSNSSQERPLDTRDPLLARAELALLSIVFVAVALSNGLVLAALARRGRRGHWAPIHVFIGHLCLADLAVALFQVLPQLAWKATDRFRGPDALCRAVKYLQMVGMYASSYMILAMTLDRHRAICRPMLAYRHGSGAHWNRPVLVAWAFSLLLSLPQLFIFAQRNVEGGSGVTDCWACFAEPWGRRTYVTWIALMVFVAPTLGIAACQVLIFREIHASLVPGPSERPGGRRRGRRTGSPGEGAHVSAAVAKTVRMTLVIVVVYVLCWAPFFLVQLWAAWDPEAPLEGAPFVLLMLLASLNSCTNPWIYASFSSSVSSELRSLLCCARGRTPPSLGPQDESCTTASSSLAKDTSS

This assay addresses T1, human vasopressin V2 receptor subtype (Homo sapiens, UniProt P30518).
T1 construct: host or cells: CHO cells, stably transfected (pZeoSV vector)
Nature of the assay: Vasopressin binding in CHO cell membranes expressing human vasopressin V2 subtype receptors ([3H]arginine vasopressin radioligand binding). To be noted: 100 nM. Here is the method: Vasopressin Binding in Chinese Hamster Ovary Cell Membranes Expressing Human Vasopressin V2 Subtype Receptors
Chinese Hamster Ovary (CHO) cells stably transfected with the human V2 subtype receptors were obtained from M. Thibonnier, Case Western Reserve University School of Medicine, Cleveland, Ohio.
The trypsin is removed by aspiration and the cells dislodged by tapping. Cell Culture medium (e.g. 30 mL for 1:30 split) is immediately added and mixed well to inactivate trypsin. 1 mL of detached cells is added to new culture flasks containing fresh Cell Culture medium (e.g. into 25 mL per T-150 flask), and mixed gently. The cells are incubated at 37° C. in 5% CO2. The medium is changed at 3 to 4 day interval (or as appropriate). […] All steps are done under sterile conditions.
The cells are washed twice gently with Hank's Balanced Salt solution (e.g. use 10 mL per T-150 flask). […] The contents are transferred to centrifuge tubes (50 mL) kept in ice bath. All subsequent steps are done at 4° C. The tubes are centrifuged at 300×g for 15 min (1380 rpm on SORVAL, Model RT6000D, using the rotor for 50 mL tubes). The supernatant is discarded and the cells suspended in homogenizing buffer(10 mM Tris-HCl containing 0.25 M sucrose and 1 mM EDTA, pH 7.4) ensuring that the volume of the buffer is about ten times the volume of the cell pellet. The cells are pooled into a centrifuge tube (50 mL) and homogenized with Polytron at setting 6 for 10 sec. The homogenate is transferred into a Potter-Elvjehm homogenizer and homogenized with 3 strokes. The homogenate is centrifuged at 1500×g for 60 min at 4° C. (3100 rpm using SORVAL, model RT6000D, using the rotor for 50 mL tubes). The pellet is discarded. The supernatant is centrifuged at 100,000×g for 60 min. at 4° C. (Beckman L8-80M ultracentrifuge; spin at 37,500 rpm with rotor type 70 Ti for 50 mL tubes; 38,000 rpm with type 80Ti for 15 mL tubes; or 35,800 rpm with rotor type 45Ti). The supernantant is discarded and the pellet suspended in 3 to 4 mL of Tris buffer (50 mM TRIS-HCl, pH 7.4). The protein content is estimated by the Bradford or Lowry method. The volume of the membrane suspension is adjusted with the membrane buffer (50 mM Tris-HCl containing 0.1% BSA and 0.1 mM PMSF) to give 3.0 mg/mL (or as appropriate) of protein. The membranes are aliquoted and stored at −70° C.
In wells of a 96-well format microtiter plate, is added 90, 110 or 130 μL (to make up a final volume of 200 μL) of assay buffer containing 50 mM of Tris-HCl (pH 7.4), […], 1 mg % aprotinin, 1 mg % leupeptin, 2 mg % 1,10-phenanthroline, 10 mg % trypsin inhibitor, and 0.1 mM PMSF. The inhibitors are added on the day of the experiment. The components are mixed at room temperature, and then kept in ice bath following adjustment of the pH to 7.4. […] For vasopressin and other peptide ligands 20 μL of 50% DMSO is added and the assay buffer volume is adjusted accordingly. To each well is added 50 μL of frozen membrane suspension thawed immediately prior to use and diluted in assay buffer to the required concentration (equivalent to 25 to 50 μg of protein/well as needed). 20 μL of 8 nM [^3H]arginine vasopressin ligand in the assay buffer, prepared just before use is added and incubated at room temperature for 60 min. shaking the plate on a mechanical shaker for the first 15 min. The incubation is stopped by rapid filtration of the plate contents followed by wash with ice-cold buffer (50 mM Tris-HCl, pH 7.4) using a cell harvester (Tomtek and Printed filtermat-B filter paper). The filter paper is thoroughly dried (7–12 min. in a microwave oven) and impregnated with MeltiLex B/H melt-on scintillation wax sheets and the radioactivity counted in a betaplate scintillation counter.
Binding data is either reported as percent inhibition at a certain concentration or if an IC50 was calculated, as a nanomolar concentration.
On to `COc1ccccc1-c1ccc(C(=O)N2Cc3ccc(C(=O)N(C)CCc4ccccn4)n3Cc3ccccc32)cc1OC` [Example 64, 10-[(2,2′-Dimethoxy-[1,1′-biphenyl]-4-yl)carbonyl]-N-methyl-N-[2-(2-pyridinyl)ethyl]-10,11-dihydro-5H-pyrrolo[2,1-c][1,4]benzodiazepine-3-carboxamide], for which the inhibition at 0.1 µM was 13%.
Regarding `COc1cc(C(=O)N2Cc3ccc(C(=O)N4CCN(c5ccccn5)CC4)n3Cc3ccccc32)ccc1-c1cccc2ccccc12` [Example 83], the “V2 % inhibition @ 100 nM” value stood at 22%.
In the case of `COc1cccc(-c2ccc(C(=O)N3Cc4ccc(C(=O)NCc5ccncc5)n4Cc4ccccc43)cc2OC)c1` [Example 98], the “V2 % inhibition @ 100 nM” value amounted to 10%.
As to `COc1cc(C(=O)N2Cc3ccc(C(=O)N(C)Cc4cccnc4)n3Cc3ccccc32)ccc1-c1ccccc1C` [Example 106, 10-[(2-Methoxy-2′-methyl-[1,1′-biphenyl]-4-yl)carbonyl]-N-methyl-N-(3-pyridinylmethyl)-10,11-dihydro-5H-pyrrolo[2,1-c][1,4]benzodiazepine-3-carboxamide], the inhibition at 0.1 µM was -10%.
For `COc1cc(-c2ccccc2C)c(Cl)cc1C(=O)N1Cc2ccc(C(=O)N(C)Cc3cccnc3)n2Cc2ccccc21` [Example 107, 10-[(6-Chloro-3-methoxy-2′-methyl-[1,1′-biphenyl]-4-yl)carbonyl]-N-methyl-N-(3-pyridinylmethyl)-10,11-dihydro-5H-pyrrolo[2,1-c][1,4]benzodiazepine-3-carboxamide], the inhibition at 0.1 µM amounted to 30%.
Still for that read-out and setting: the same measure for `COc1cccc(-c2cc(OC)c(C(=O)N3Cc4ccc(C(=O)N(C)Cc5cccnc5)n4Cc4ccccc43)cc2Cl)c1` [Example 108, 10-[(6-Chloro-3,3′-dimethoxy-[1,1′-biphenyl]-4-yl)carbonyl]-N-methyl-N-(3-pyridinylmethyl)-10,11-dihydro-5H-pyrrolo[2,1-c][1,4]benzodiazepine-3-carboxamide]: 24%; for `COc1cc(C(=O)N2Cc3ccc(C(=O)N(C)Cc4cccnc4)n3Cc3ccccc32)ccc1-c1cccc2ccccc12` [Example 109, 10-[3-Methoxy-4-(naphthalen-1-yl)benzoyl]-N-methyl-N-(3-pyridinylmethyl)-10,11-dihydro-5H-pyrrolo[2,1-c][1,4]benzodiazepine-3-carboxamide]: 0%.
Consider `COc1cccc(-c2ccc(C(=O)N3Cc4ccc(C(=O)N(C)Cc5cccnc5)n4Cc4ccccc43)cc2OC)c1` [Example 110], for which the “V2 % inhibition @ 100 nM” value was 32%.
`CN(Cc1cccnc1)C(=O)c1ccc2n1Cc1ccccc1N(C(=O)c1ccc(-c3cccc4ccccc34)cc1Cl)C2` [Example 111, 10-[2-Chloro-4-(naphthalen-1-yl)benzoyl]-N-methyl-N-(3-pyridinylmethyl)-10,11-dihydro-5H-pyrrolo[2,1-c][1,4]benzodiazepine-3-carboxamide]: the inhibition at 0.1 µM amounted to 23%.
For the molecule `Cc1ccccc1-c1ccc(C(=O)N2Cc3ccc(C(=O)N4CCN(c5ccncc5)CC4)n3Cc3ccccc32)cc1C` [Example 114, {10-[(2,2′-Dimethyl-[1,1′-biphenyl]-4-yl)carbonyl]-10,11-dihydro-5H-pyrrolo[2,1-c][1,4]benzodiazepin-3-yl}[4-(4-pyridinyl)-1-piperazinyl]methanone], the inhibition at 0.1 µM was 18%.
Regarding `COc1cccc(-c2ccc(C(=O)N3Cc4ccc(C(=O)N5CCN(c6ccncc6)CC5)n4Cc4ccccc43)cc2C)c1` [Example 115, {10-[(3′-Methoxy-2-methyl-[1,1′-biphenyl]-4-yl)carbonyl]-10,11-dihydro-5H-pyrrolo[2,1-c][1,4]benzodiazepin-3-yl}[4-(4-pyridinyl)-1-piperazinyl]methanone], the inhibition at 0.1 µM stood at 8%.
In the case of `COc1ccccc1-c1ccc(C(=O)N2Cc3ccc(C(=O)N4CCN(c5ccncc5)CC4)n3Cc3ccccc32)cc1` [Example 116, {10-[(2′-Methoxy-[1,1′-biphenyl]-4-yl)carbonyl]-10,11-dihydro-5H-pyrrolo[2,1-c][1,4]benzodiazepin-3-yl}[4-(4-pyridinyl)-1-piperazinyl]methanone], the inhibition at 0.1 µM is 63%.
On to `Cc1ccccc1-c1ccc(C(=O)N2Cc3ccc(C(=O)N4CCN(c5ccncc5)CC4)n3Cc3ccccc32)cc1` [Example 117, {10-[(2′-Methyl-[1,1′-biphenyl]-4-yl)carbonyl]-10,11-dihydro-5H-pyrrolo[2,1-c][1,4]benzodiazepin-3-yl}[4-(4-pyridinyl)-1-piperazinyl]methanone], for which the inhibition at 0.1 µM came to 4%.
In the case of `COc1cc(C(=O)N2Cc3ccc(C(=O)N4CCN(c5ccncc5)CC4)n3Cc3ccccc32)ccc1-c1ccccc1C` [Example 118], the “V2 % inhibition @ 100 nM” value is listed as −10%.
As for `COc1cc(-c2ccccc2C)c(Cl)cc1C(=O)N1Cc2ccc(C(=O)N3CCN(c4ccncc4)CC3)n2Cc2ccccc21` [Example 119, {10-[(6-Chloro-3-methoxy-2′-methyl-[1,1′-biphenyl]-4-yl)carbonyl]-10,11-dihydro-5H-pyrrolo[2,1-c][1,4]benzodiazepin-3-yl}[4-(4-pyridinyl)-1-piperazinyl]methanone], the inhibition at 0.1 µM stood at 17%.
Same read-out and setting: the same measure for `COc1cccc(-c2cc(OC)c(C(=O)N3Cc4ccc(C(=O)N5CCN(c6ccncc6)CC5)n4Cc4ccccc43)cc2Cl)c1` [Example 120, {10-[(6-Chloro-3,3′-dimethoxy-[1,1′-biphenyl]-4-yl)carbonyl]-10,11-dihydro-5H-pyrrolo[2,1-c][1,4]benzodiazepin-3-yl}[4-(4-pyridinyl)-1-piperazinyl]methanone]: 16%; for `COc1cc(C(=O)N2Cc3ccc(C(=O)N4CCN(c5ccncc5)CC4)n3Cc3ccccc32)ccc1-c1cccc2ccccc12` [Example 121, {10-[3-Methoxy-4-(naphthalen-1-yl)benzoyl]-10,11-dihydro-5H-pyrrolo[2,1-c][1,4]benzodiazepin-3-yl}[4-(4-pyridinyl)-1-piperazinyl]methanone]: -4%; for `COc1ccccc1-c1ccc(C(=O)N2Cc3ccc(C(=O)N4CCN(c5ccncc5)CC4)n3Cc3ccccc32)cc1OC` [Example 122, {10-[(2,2′-Dimethoxy-[1,1′-biphenyl]-4-yl)carbonyl]-10,11-dihydro-5H-pyrrolo[2,1-c][1,4]benzodiazepin-3-yl}[4-(4-pyridinyl)-1-piperazinyl]methanone]: -10%.
Still for that read-out and setting: with `COc1cccc(-c2ccc(C(=O)N3Cc4ccc(C(=O)N5CCN(c6ccncc6)CC5)n4Cc4ccccc43)cc2OC)c1` [Example 123, {10-[(2,3′-Dimethoxy-[1,1′-biphenyl]-4-yl)carbonyl]-10,11-dihydro-5H-pyrrolo[2,1-c][1,4]benzodiazepin-3-yl}[4-(4-pyridinyl)-1-piperazinyl]methanone] the figure was 30%; with `O=C(c1ccc2n1Cc1ccccc1N(C(=O)c1ccc(-c3cccc4ccccc34)cc1Cl)C2)N1CCN(c2ccncc2)CC1` [Example 124, {10-[2-Chloro-4-(naphthalen-1-yl)benzoyl]-10,11-dihydro-5H-pyrrolo[2,1-c][1,4]benzodiazepin-3-yl}[4-(4-pyridinyl)-1-piperazinyl]methanone], 18%.
